Source: patent US6818622B2 (Darwin Discovery Ltd., priority 1997, dated 2004)

How the values were obtained:
collagenase-3 (MMP-13) = collagenase-3 (MMP-13) (Homo sapiens, UniProt P45452); assay: MMP inhibition activity fluorimetric assay (Example A), MMP-13; assay type: biochemical; settings: fluorimetric substrate 10 μM, 37° C.
Experimental: (§1) The potency of inhibitors of collagenase-1 (MMP-1), collagenase-2 (MMP-8), collagenase-3 (MMP-13), gelatinase-A (MMP-2), gelatinase-B (MMP-9) and stromelysin-1 (MMP-3) is determined using the following procedure:
(§2) Inhibitors are dissolved in dimethyl sulphoxide containing 0.02% β-mercaptoethanol, and serial dilutions are prepared. Activated enzyme is incubated in assay buffer containing 50 mM Tris, pH 7.4, 5 mM CaCl2, 0.002% NaN3 and Brij 35 in the presence and absence of inhibitor. Samples are preincubated at 37° C. for 15 minutes before the addition of the fluorimetric substrate (Mca-Pro-Leu-Gly-Leu-Dpa-Ala-Arg-NH2) to a final concentration of 10 μM.
(§3) The enzyme activity is compared to activity in a control devoid of inhibitor.

gelatinase-B (MMP-9) = gelatinase-B (MMP-9) (Homo sapiens, UniProt P14780); assay: MMP inhibition activity fluorimetric assay (Example A), MMP-9; assay type: biochemical; settings: fluorimetric substrate 10 μM, 37° C.
Chain of gelatinase-B (MMP-9) (P14780 107-707 limits assumed, species assumed): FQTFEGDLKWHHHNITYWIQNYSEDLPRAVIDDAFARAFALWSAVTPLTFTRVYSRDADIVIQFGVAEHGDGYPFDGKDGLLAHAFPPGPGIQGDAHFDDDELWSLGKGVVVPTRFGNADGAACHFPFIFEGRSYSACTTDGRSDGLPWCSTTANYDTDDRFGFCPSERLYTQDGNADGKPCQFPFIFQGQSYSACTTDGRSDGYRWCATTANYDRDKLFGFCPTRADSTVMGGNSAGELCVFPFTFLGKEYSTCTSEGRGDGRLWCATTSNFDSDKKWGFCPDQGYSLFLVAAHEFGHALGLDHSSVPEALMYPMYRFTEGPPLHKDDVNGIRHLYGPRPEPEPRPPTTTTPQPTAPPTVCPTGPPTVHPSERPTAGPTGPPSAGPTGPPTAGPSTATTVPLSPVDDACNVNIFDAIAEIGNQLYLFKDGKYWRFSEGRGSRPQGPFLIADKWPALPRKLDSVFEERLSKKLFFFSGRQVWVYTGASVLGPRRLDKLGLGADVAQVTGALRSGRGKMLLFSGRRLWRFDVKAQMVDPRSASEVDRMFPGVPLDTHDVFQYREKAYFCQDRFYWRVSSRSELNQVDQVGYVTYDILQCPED
Experimental: as §1, §2, §3

gelatinase-A (MMP-2) = target: T1, gelatinase-A (MMP-2) (Homo sapiens, UniProt P08253); assay: MMP inhibition activity fluorimetric assay (Example A), MMP-2; assay type: biochemical; settings: fluorimetric substrate 10 μM, 37° C.
T1 sequence (P08253 110-660): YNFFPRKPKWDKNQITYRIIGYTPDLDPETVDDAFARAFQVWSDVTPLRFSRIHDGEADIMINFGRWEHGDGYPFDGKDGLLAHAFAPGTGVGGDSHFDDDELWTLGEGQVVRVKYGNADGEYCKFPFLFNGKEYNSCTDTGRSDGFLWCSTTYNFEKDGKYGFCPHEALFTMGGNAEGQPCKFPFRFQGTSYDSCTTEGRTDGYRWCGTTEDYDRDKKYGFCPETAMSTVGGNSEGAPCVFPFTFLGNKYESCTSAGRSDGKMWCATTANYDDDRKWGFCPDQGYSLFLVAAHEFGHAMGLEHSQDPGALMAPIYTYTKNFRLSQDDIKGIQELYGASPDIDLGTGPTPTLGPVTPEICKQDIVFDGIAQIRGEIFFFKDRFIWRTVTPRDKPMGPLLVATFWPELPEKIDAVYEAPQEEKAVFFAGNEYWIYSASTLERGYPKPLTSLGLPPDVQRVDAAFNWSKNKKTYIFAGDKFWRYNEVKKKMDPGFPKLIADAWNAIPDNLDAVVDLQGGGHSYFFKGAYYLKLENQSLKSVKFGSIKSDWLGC
Experimental: as §1, §2, §3

[1] = test system: sIL-6R shedding by HL-60 cells; assay: Inhibition of IL-6R shedding (Example E); assay type: cell-based; settings: Homo sapiens, read-out: Example E: inhibitor concentration effecting 50% inhibition of the shedding of IL-6R; HL-60 cells stimulated with PMA, 24 h, ELISA
Experimental: An assay of sIL-6R shedding by HL-60 cells is conducted as follows: PBMC are isolated from buffy coats by standard procedures using Ficoll. A 100 μM solution of the inhibitor being tested or dilutions thereof is incubated for 24 h at 37° C. in an atmosphere of 5% CO2 with 2×10^6/ml HL-60 cells stimulated with PMA. The cells are centrifuged down and the supernatants tested for sIl-6R using a commercially available ELISA kit. The activity in the presence of 100 μM inhibitor or dilutions thereof is compared to activity in a control devoid of inhibitor.

collagenase-2 (MMP-8) = collagenase-2 (MMP-8) (Homo sapiens, UniProt P22894); assay: MMP inhibition activity fluorimetric assay (Example A), MMP-8; assay type: biochemical; settings: fluorimetric substrate 10 μM, 37° C.
Chain of collagenase-2 (MMP-8) (P22894 101-467, species assumed): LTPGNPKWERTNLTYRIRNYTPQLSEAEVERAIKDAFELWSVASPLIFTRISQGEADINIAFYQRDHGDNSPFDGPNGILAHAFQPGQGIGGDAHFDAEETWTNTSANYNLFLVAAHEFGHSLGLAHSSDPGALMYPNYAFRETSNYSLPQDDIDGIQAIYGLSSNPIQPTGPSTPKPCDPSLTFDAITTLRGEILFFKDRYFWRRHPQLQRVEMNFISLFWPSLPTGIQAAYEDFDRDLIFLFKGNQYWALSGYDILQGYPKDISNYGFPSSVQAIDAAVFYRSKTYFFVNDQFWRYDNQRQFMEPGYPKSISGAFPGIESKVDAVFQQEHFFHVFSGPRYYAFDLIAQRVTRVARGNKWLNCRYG
Experimental: as §1, §2, §3

[2] = test system: marmoset joints and tendons; assay: Marmoset tendonitis study; assay type: in vivo; settings: oral dosing at 30 and 100 mg/kg for 3 months; for Plasma levels on repeated plasma sampling: up to 9 h post-dose
Experimental: Specific examples of compounds showing the desired profile are those of Examples 1 and 2 and cpd. 3 (see below). These three compounds have been tested in the marmoset tendonitis study. This procedure for this study has been defined by Wojtowicz-Praga et al, supra. The study was performed with oral dosing at 30 and 100 mg/kg for 3 months. […] See Hooper et al, supra.

collagenase-1 (MMP-1) = target: T2, collagenase-1 (MMP-1) (Homo sapiens, UniProt P03956); assay: MMP inhibition activity fluorimetric assay (Example A), MMP-1; assay type: biochemical; settings: fluorimetric substrate 10 μM, 37° C.
T2 sequence (P03956 100-469): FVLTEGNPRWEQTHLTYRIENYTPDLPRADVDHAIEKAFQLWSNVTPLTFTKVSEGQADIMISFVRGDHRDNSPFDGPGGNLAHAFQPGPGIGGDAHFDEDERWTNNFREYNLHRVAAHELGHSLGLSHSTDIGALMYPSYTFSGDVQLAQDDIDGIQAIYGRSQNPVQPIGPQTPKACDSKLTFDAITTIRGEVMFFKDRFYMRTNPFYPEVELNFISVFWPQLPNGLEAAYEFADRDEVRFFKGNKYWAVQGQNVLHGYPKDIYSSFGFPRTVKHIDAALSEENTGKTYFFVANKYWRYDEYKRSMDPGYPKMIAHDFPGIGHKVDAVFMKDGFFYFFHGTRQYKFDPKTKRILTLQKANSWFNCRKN
Experimental: as §1, §2, §3

stromelysin-1 (MMP-3) = stromelysin-1 (MMP-3) (Homo sapiens, UniProt P08254); assay: MMP inhibition activity fluorimetric assay (Example A), MMP-3; assay type: biochemical; settings: fluorimetric substrate 10 μM, 37° C.
Chain of stromelysin-1 (MMP-3) (P08254 100-477, species assumed): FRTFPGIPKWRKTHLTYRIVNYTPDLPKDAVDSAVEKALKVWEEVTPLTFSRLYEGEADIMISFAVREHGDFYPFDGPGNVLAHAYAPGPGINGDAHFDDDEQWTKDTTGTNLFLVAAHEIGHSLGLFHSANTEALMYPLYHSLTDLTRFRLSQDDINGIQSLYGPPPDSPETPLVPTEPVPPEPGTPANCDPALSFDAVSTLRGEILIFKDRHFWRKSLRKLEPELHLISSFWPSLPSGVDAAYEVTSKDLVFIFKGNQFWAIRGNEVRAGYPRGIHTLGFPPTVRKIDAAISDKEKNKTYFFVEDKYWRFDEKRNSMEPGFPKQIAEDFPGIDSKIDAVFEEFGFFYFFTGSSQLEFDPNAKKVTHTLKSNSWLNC
Experimental: as §1, §2, §3

[3] = test system: production of TNFα by peripheral blood mononuclear cells (PBMC); assay: Inhibition of TNFα production (Example B); assay type: cell-based; settings: read-out: Example B: inhibitor concentration effecting 50% inhibition of the production of TNFα; PBMC stimulated with LPS, 18 hours, ELISA
Experimental: PBMC are isolated from buffy coats by standard procedures using Ficoll. […] After 18 hours the supernatant is assayed for the levels of TNFα using a commercially available ELISA kit. The activity in the presence of 100 μM inhibitor or dilutions thereof is compared to activity in a control devoid of inhibitor.

[4] = test system: sIL-1RII shedding by PBMC; assay: Inhibition of sIL-1RII shedding (Example D); assay type: cell-based; settings: read-out: Example D: inhibitor concentration effecting 50% inhibition of the shedding of sIL-1RII; PBMC stimulated with IL-13, 18 h, ELISA
Experimental: An assay of sIL-1RII shedding by PBMC is conducted as follows: PBMC are isolated from buffy coats by standard procedures using Ficoll. A 100 μM solution of the inhibitor being tested or dilutions thereof are incubated for 18 h at 37° C. in an atmosphere of 5% CO2 with 2×10^6/ml PBMC stimulated with IL-13. The cells are centrifuged down and the supernatants tested for sIL-1RII using a commercially available ELISA kit. The activity in the presence of 100 μM inhibitor or dilutions thereof is compared to activity in a control devoid of inhibitor.

[5] = test system: L-selectin shedding by peripheral blood mononuclear cells (PBMC); assay: Inhibition of L-selectin shedding (Example C); assay type: cell-based; settings: 20 min, read-out: Example C: inhibitor concentration effecting 50% inhibition of the shedding of L-selectin, PBMC stimulated with PMA, ELISA
Experimental: An assay of L-selectin shedding by peripheral blood mononuclear cells (PBMC) is conducted as follows: PBMC are isolated from buffy coats by standard procedures using Ficoll. A 100 μM solution of the inhibitor being tested or dilutions thereof is incubated for 20 min at 37° C. in an atmosphere of 5% CO2 with 4×10^6/ml PBMC stimulated with PMA. The cells are centrifuged down and the supernatants tested for sL-selectin using a commercially available ELISA kit. The activity in the presence of 100 μM inhibitor or dilutions thereof is compared to activity in a control devoid of inhibitor.

[6] = test system: shedding of TNF RII by THP-1 cells (human monocytes); assay: Inhibition of TNF RII shedding (Example F); assay type: cell-based; settings: read-out: Example F: inhibitor concentration effecting 50% inhibition of the shedding of TNF RII, THP-1 cells stimulated with LPS, 18 hours, ELISA
Experimental: After 18 hours the supernatant is assayed for the levels of sTNF RII using a commercially available ELISA kit. The activity in the presence of 0.1 mM inhibitor or dilutions thereof is compared to activity in a control devoid of inhibitor.

Structure (SMILES) | IC50 (collagenase-3 (MMP-13)) | IC50 (gelatinase-B (MMP-9)) | IC50 (gelatinase-A (MMP-2)) | IC50 [1] | IC50 (collagenase-2 (MMP-8)) | Continuous clinical observation [2] | Histological observation of joints and tendons [2] | Plasma levels on repeated plasma sampling [2] | IC50 (collagenase-1 (MMP-1)) | IC50 (stromelysin-1 (MMP-3)) | IC50 [3] | IC50 [4] | IC50 [5] | IC50 [6]
CNC(=O)[C@@H](NC(=O)[C@H](CC(C)C)NC(=O)[C@@H](S)CCN1C(=O)N(C)C(C)(C)C1=O)C(C)(C)C [Ex. 2, 2S-[2S-Mercapto-4-(3,4,4-trimethyl-2,5-dioxoimidazolidin-1-yl)butyrylamino]-4-methylpentanoic Acid (2,2-Dimethyl-1S-methylcarbamoylpropyl)amide] | 0.004 µM | 0.025 µM | 0.041 µM | > 50 µM | 0.01 µM | no adverse effects | no adverse effects on joints and tendons | sustained levels in excess of the enzymes' IC50 | 0.025 µM | 0.157 µM | > 50 µM | > 50 µM | > 50 µM | > 50 µM
CNC(=O)[C@@H](NC(=O)[C@H](CC(C)C)NC(=O)[C@@H](S)CCCN1C(=O)c2ccccc2C1=O)C(C)(C)C [Cpd. 3, (S)-N-[2-mercapto-5-phthalimido]pentanoyl-L-leucyl-(S)-tert-leucine N-methylamide] | 0.002 µM | 0.005 µM | 0.015 µM | > 50 µM | 0.009 µM | no adverse effects | no adverse effects on joints and tendons | sustained levels in excess of the enzymes' IC50 | 0.028 µM | 0.179 µM | 10 µM | > 50 µM | > 50 µM | > 50 µM
CNC(=O)[C@@H](NC(=O)[C@H](CC(C)C)NC(=O)[C@@H](S)CCN1C(=O)CCC1=O)C(C)(C)C [Ex. 1, 2S-[4-(2,5-Dioxopyrrolidin-1-yl)-2S-mercaptobutyrylamino]-4-methylpentanoic Acid (2,2-Dimethyl-1S-methylcarbamoylpropyl)-amide] | 0.004 µM | 0.053 µM | 0.13 µM | > 50 µM | 0.01 µM | no adverse effects | no adverse effects on joints and tendons | sustained levels in excess of the enzymes' IC50 | 0.012 µM | 0.381 µM | > 50 µM | 38 µM | > 50 µM | > 50 µM
